Source: ChEMBL document CHEMBL5150052, “Riboflavin-Promoted In Situ Photoactivation of Dihydroalkaloid Prodrugs for Cancer Therapy” (J Med Chem, 2022)
Active and inactive are the calls of the source. The rule behind the calls is not given here.

Experiments:
[1] = tested on: A-375; test: Potentiation of DHCHE-mediated anticancer activity against human A-375 cells assessed as cell killing under blue light 450 nm/20 mW/cm^-2 irradiation at 10 uM after 10 min by MTT assay; format: functional, cell-based
[2] = tested on: A-375; test: Potentiation of DHNIT-mediated anticancer activity against human A-375 cells assessed as cell killing under blue light 450 nm/20 mW/cm^-2 irradiation at 10 uM after 10 min by MTT assay; format: functional, cell-based
[3] = tested on: A-375; test: Potentiation of DHSAN-mediated anticancer activity against human A-375 cells assessed as cell killing under blue light 450 nm/20 mW/cm^-2 irradiation at 10 uM after 10 min by MTT assay; format: functional, cell-based
[4] = Photooxidative transformation of DHCHE assessed as decrease in DHCHE peak under blue light 450 nm/20 mW/cm^-2 irradiation at 0.1 mg/ml from 0 to 20 mins by NMR spectra analysis; format: functional; settings: time 0-20 min
[5] = tested on: A-375; test: Potentiation of DHCHE-mediated apoptosis activity against human A-375 cells assessed as decrease in Bcl2 gene expression under blue light 450 nm/20 mW/cm^-2 irradiation at 10 uM after 10 min by quantitative reverse transcription PCR analysis; format: functional, cell-based
[6] = Toxicity in human A-375 cells xenografted in mouse model assessed as inflammation lesions in kidney in presence of DHCHE under blue light 450 nm/20 mW/cm^-2 irradiation at 1 mg/kg administered intratumoral injection for 14 days by H and E staining based assay; format: organism-based; settings: in vivo, other, 336 h, route it(Intratumoral), time 14 day
[7] = tested on: A-375; test: In vivo antitumor activity against human A-375 cells xenografted in mouse model assessed as potentiation of DHCHE-mediated tumor growth inhibition under blue light 450 nm/20 mW/cm^-2 irradiation at 1 mg/kg administered intratumoral injection for 14 days; format: functional, organism-based; settings: route it(Intratumoral), time 14.0 day
[8] = Photooxidative transformation of DHCHE assessed as increase in generation of CHE under blue light 450 nm/20 mW/cm^-2 irradiation at 10 uM by UV-vis absorption spectra analysis; format: functional
[9] = tested on: A-375; test: Potentiation of DHCHE-mediated apoptosis activity against human A-375 cells assessed as increase in P53 gene expression under blue light 450 nm/20 mW/cm^-2 irradiation at 10 uM after 10 min by quantitative reverse transcription PCR analysis; format: functional, cell-based
[10] = tested on: A-375; test: Potentiation of DHCHE-mediated apoptosis activity against human A-375 cells assessed as cell killing under blue light 450 nm/20 mW/cm^-2 irradiation at 10 uM after 30 min by CLSM imaging method; format: functional; settings: 0.5 h
[11] = tested on: A-375; test: Potentiation of DHCHE-mediated apoptosis activity against human A-375 cells assessed as increase in Caspase 3 gene expression under blue light 450 nm/20 mW/cm^-2 irradiation at 10 uM after 10 min by quantitative reverse transcription PCR analysis; format: functional, cell-based
[12] = tested on: A-375; test: Potentiation of DHCHE-mediated apoptosis activity against human A-375 cells assessed as increase in Bax gene expression under blue light 450 nm/20 mW/cm^-2 irradiation at 10 uM after 10 min by quantitative reverse transcription PCR analysis; format: functional, cell-based
[13] = Toxicity in human A-375 cells xenografted in mouse model assessed as inflammation lesions in heart in presence of DHCHE under blue light 450 nm/20 mW/cm^-2 irradiation at 1 mg/kg administered intratumoral injection for 14 days by H and E staining based assay; format: organism-based; settings: in vivo, other, 336 h, route it(Intratumoral), time 14 day
[14] = Toxicity in human A-375 cells xenografted in mouse model assessed as changes in ALT in presence of DHCHE under blue light 450 nm/20 mW/cm^-2 irradiation at 1 mg/kg administered intratumoral injection for 14 days by […]; format: organism-based; settings: in vivo, other, 336 h, route it(Intratumoral), time 14 day
[15] = Toxicity in human A-375 cells xenografted in mouse model assessed as changes in BUN in presence of DHCHE under blue light 450 nm/20 mW/cm^-2 irradiation at 1 mg/kg administered intratumoral injection for 14 days by […]; format: organism-based; settings: in vivo, other, 336 h, route it(Intratumoral), time 14 day
[16] = Photooxidative transformation of DHNIT assessed as increase in generation of NIT under blue light 450 nm/20 mW/cm^-2 irradiation at 10 uM by UV-vis absorption spectra analysis; format: functional
[17] = tested on: A-375; test: In vivo antitumor activity against human A-375 cells xenografted in mouse model assessed as potentiation of DHCHE-mediated anticancer activity by measuring decrease in Ki-67 expression at 1 mg/kg administered intratumoral injection for 14 days by […]; format: functional, organism-based; settings: route it(Intratumoral), time 14.0 day
[18] = Toxicity in human A-375 cells xenografted in mouse model assessed as inflammation lesions in liver in presence of DHCHE under blue light 450 nm/20 mW/cm^-2 irradiation at 1 mg/kg administered intratumoral injection for 14 days by H and E staining based assay; format: organism-based; settings: in vivo, other, 336 h, route it(Intratumoral), time 14 day
[19] = tested on: A-375; test: Potentiation of DHNIT-mediated apoptosis activity against human A-375 cells assessed as cell killing under blue light 450 nm/20 mW/cm^-2 irradiation at 10 uM after 30 min by CLSM imaging method; format: functional, cell-based
[20] = Photooxidative transformation of DHCHE assessed as decrease in DHCHE peak under blue light 450 nm/20 mW/cm^-2 irradiation at 0.1 mg/ml by HPLC analysis (reference value: 82.7%); format: functional; set-up: scale not given: the % may be the effect or the level left
[21] = Toxicity in human A-375 cells xenografted in mouse model assessed as inflammation lesions in lung in presence of DHCHE under blue light 450 nm/20 mW/cm^-2 irradiation at 1 mg/kg administered intratumoral injection for 14 days by H and E staining based assay; format: organism-based; settings: in vivo, other, 336 h, route it(Intratumoral), time 14 day
[22] = Toxicity in human A-375 cells xenografted in mouse model assessed as change in body weight in presence of DHCHE under blue light 450 nm/20 mW/cm^-2 irradiation at 1 mg/kg administered intratumoral injection for 14 days; format: organism-based; settings: in vivo, other, 336 h, route it(Intratumoral), time 14 day
[23] = tested on: A-375; test: Potentiation of DHSAN-mediated apoptosis activity against human A-375 cells assessed as cell killing under blue light 450 nm/20 mW/cm^-2 irradiation at 10 uM after 30 min by CLSM imaging method; format: functional, cell-based
[24] = tested on: A-375; test: Photooxidative transformation of DHCHE in human A-375 cells assessed as increase in red fluorescence in nucleus under blue light 450 nm/20 mW/cm^-2 irradiation at 10 uM after 1 min by confocal laser scanning microscopy; format: ADME, cell-based; settings: a-375, 1 min
[25] = Photooxidative transformation of DHSAN assessed as increase in generation of SAN under blue light 450 nm/20 mW/cm^-2 irradiation at 10 uM by UV-vis absorption spectra analysis; format: functional
[26] = Photooxidative transformation of DHCHE assessed as decrease in DHCHE peak under blue light 450 nm/20 mW/cm^-2 irradiation at 0.1 mg/ml from 0 to 20 mins by HRMS spectra analysis; format: functional; settings: time 0-20 min
[27] = Toxicity in human A-375 cells xenografted in mouse model assessed as changes in total protein in presence of DHCHE under blue light 450 nm/20 mW/cm^-2 irradiation at 1 mg/kg administered intratumoral injection for 14 days by […]; format: organism-based; settings: in vivo, other, 336 h, route it(Intratumoral), time 14 day
[28] = Toxicity in human A-375 cells xenografted in mouse model assessed as inflammation lesions in intestine in presence of DHCHE under blue light 450 nm/20 mW/cm^-2 irradiation at 1 mg/kg administered intratumoral injection for 14 days by H and E staining based assay; format: organism-based; settings: in vivo, other, 336 h, route it(Intratumoral), time 14 day
[29] = tested on: A-375; test: In vivo antitumor activity against human A-375 cells xenografted in mouse model assessed as potentiation of DHCHE-mediated anticancer activity by measuring increase in caspase 3 expression at 1 mg/kg administered intratumoral injection for 14 days by […]; format: functional, organism-based; settings: route it(Intratumoral), time 14.0 day
[30] = tested on: A-375; test: In vivo antitumor activity against human A-375 cells xenografted in mouse model assessed as potentiation of DHCHE-mediated anticancer activity by measuring increase in vacuole and condensed nuclei at 1 mg/kg administered intratumoral injection for 14 days by […]; format: functional, organism-based; settings: route it(Intratumoral), time 14.0 day
[31] = Toxicity in human A-375 cells xenografted in mouse model assessed as inflammation lesions in spleen in presence of DHCHE under blue light 450 nm/20 mW/cm^-2 irradiation at 1 mg/kg administered intratumoral injection for 14 days by H and E staining based assay; format: organism-based; settings: in vivo, other, 336 h, route it(Intratumoral), time 14 day
[32] = Toxicity in human A-375 cells xenografted in mouse model assessed as changes in AST in presence of DHCHE under blue light 450 nm/20 mW/cm^-2 irradiation at 1 mg/kg administered intratumoral injection for 14 days by […]; format: organism-based; settings: in vivo, other, 336 h, route it(Intratumoral), time 14 day

Cc1cc2nc3c(=O)[nH]c(=O)nc-3n(C[C@H](O)[C@H](O)[C@H](O)CO)c2cc1C [RIBOFLAVIN]
Activity [1]: Active
Activity [2]: Active
Activity [3]: Active
Drug metabolism [4]: Metabolite detected
Activity [5]: Active
Activity [6]: Non-Toxic
Activity [7]: Active
Drug metabolism [8]: Metabolite detected
Activity [9]: Active
Activity [10]: 61.7%
Activity [11]: Active
Activity [12]: Active
Activity [13]: Non-Toxic
Activity [14]: Non-Toxic
Activity [15]: Non-Toxic
Drug metabolism [16]: Metabolite detected
Activity [17]: Active
Activity [18]: Non-Toxic
Activity [19]: Active
Activity [20]: 11.2%
Activity [21]: Non-Toxic
Activity [22]: Non-Toxic
Activity [23]: Active
Drug metabolism [24]: Metabolite_Detected
Drug metabolism [25]: Metabolite detected
Drug metabolism [26]: Metabolite detected
Activity [27]: Non-Toxic
Activity [28]: Non-Toxic
Activity [29]: Active
Activity [30]: Active
Activity [31]: Non-Toxic
Activity [32]: Non-Toxic
